From publication PMC6272327, “Discovery of Metal Ions Chelator Quercetin Derivatives with Potent Anti-HCV Activities” (Molecules, 2015)
Where two headings read alike, the source gives them in different places.

Experiments:
[1] = test system: HCV infectious virus J399EM; test: Anti-HCV assay in authentic HCV infection/replication system (J399EM EGFP reporter virus) in Huh7.5.1 cells; assay type: cell-based, hepatitis C virus (JFH1-derived, genotype 2a); conditions: for EC50: Hepatitis C virus, Huh-7.5.1, 72 h; for SI (selectivity index): ratio of CC50 to EC50, Huh7.5.1 cells
Method: (§1) The inhibition of HCV by all synthesized quercetin derivatives was evaluated following a previously reported procedure. All newly synthesized compounds were tested in authentic HCV infection/replication system in the human hepatoma cell lines Huh7.5.1 using mycophenolic acid (MPA) as control compound. The cytotoxicity effect of the test compounds was also evaluated in the same cell line by MTT method. Antiviral effect and cytotoxicity effect were summarized as EC50 and CC50 respectively, as well as the selective index (SI) which is the ratio of CC50 to EC50. The stability of quercetin-3-O-ester compounds were also tested in the same buffer as the antiviral activity assay at 37 °C and the hydrolysate was measured by HPLC.
The biological assays were performed following a previously reported procedure. The Huh7.5.1 cell line and the HCV infectious virus J399EM were kindly provided by Xin-Wen Chen, Wuhan Institute of Virology, Chinese Academy of Sciences. Huh7.5.1 cells were cultured in Dulbecco’s modified Eagle’s medium (DMEM) containing 10% (v/v) fetal bovine serum, 0.5 mg/mL G418, 100 IU/mL penicillin, and […].
J399EM is an infectious HCV virus derived from the JFH1 virus (genotype 2a) by insertion of enhanced green fluorescent protein (EGFP) into the HCV NS5A region. The establishment of the infectious J399EM HCV virus has been described previously. J399EM was propagated in Huh7.5.1 cells. Briefly, Huh7.5.1 cells were infected with J399EM at MOI = 0.1 and cultured for 4 days. Culture supernatant was collected and filtered through a 0.45 μm membrane and stored at −80 °C as virus stock. Virus titer was tested in Huh7.5.1 cells. Stocks were serially diluted, and the foci forming units (FFU) were determined as the number of fluorescent colonies formed in infected Huh7.5.1.
All the compounds were first dissolved in DMSO at 50 mM, and then diluted to various concentrations (50 μM, 25 μM, 12.5 μM, 6.3 μM and 3.1 μM). Approximately 1 × 10^4 Huh7.5.1 cells per well were plated in an opaque 96-well tissue culture plate (Costar 3904). The next day, the medium was replaced by J399EM virus at an MOI of 0.3. Four hours later, the virus inoculum was removed and medium containing different concentrations of compounds was added. After an additional 72 h of incubation, the culture medium was removed and the EGFP autofluorescence was measured by using a […] with excitation at 488 nm and emission at 516 nm. Compounds and controls were performed in duplicate and each experiment repeated independently at least twice.

[2] = Cell viability / cytotoxicity by MTT method; assay type: cell-based; conditions: human
Method: as §1
After the EGFP signal was read, cell viability was measured in the same plate by the MTT [3-(4,5-dimethylthiazol-2-yl)-2,5-diphenyltetrazolium bromide; Sigma-Aldrich, St. Louis, MO, USA] method. Briefly, MTT (1 mg/mL) was dissolved in PBS. Cell culture supernatants were removed and replaced with MTT and further cultured for 4 h; cells were then lysed with 10% sodium dodecyl sulfate (SDS), 50% N,N-dimethylformamide, pH 7.2. OD570 values were read. The percentage of cell death was calculated against the control well without compounds.

[3] = Huh7.5.1 cells, MTT, concentration required to reduce cell proliferation by 50%, average of duplicate determinations, read-out: CC50

SMILES | EC50 [1] | SI (selectivity index) [1] | CC50 [2] | melting point | CC50 [2, 3]
COc1cccc(C(=O)Oc2c(-c3ccc(O)c(O)c3)oc3cc(O)cc(O)c3c2=O)c1 [Compound 4h, 2-(3,4-Dihydroxyphenyl)-5,7-dihydroxy-4-oxo-4H-chromen-3-yl 3-methoxybenzoate] | 15.6 ± 0.3 µM | >3.2 | > 50 µM | 173 to 174 °C | –
N#Cc1ccc(C(=O)Oc2c(-c3ccc(O)c(O)c3)oc3cc(O)cc(O)c3c2=O)cc1 [Compound 4n, 2-(3,4-Dihydroxyphenyl)-5,7-dihydroxy-4-oxo-4H-chromen-3-yl 4-cyanobenzoate] | 11.4 ± 2.3 µM | >4.4 | > 50 µM | 196 to 197 °C | –
O=C(Oc1c(-c2ccc(O)c(O)c2)oc2cc(O)cc(O)c2c1=O)c1ccc(Cl)cc1 [Compound 4o, 2-(3,4-Dihydroxyphenyl)-5,7-dihydroxy-4-oxo-4H-chromen-3-yl 4-chlorobenzoate] | 14.3 ± 2.2 µM | >3.5 | > 50 µM | 194 to 195 °C | –
O=c1c(O)c(-c2ccc(O)c(O)c2)oc2cc(OCc3ccc(F)cc3)cc(O)c12 [Compound 3n, 2-(3,4-Dihydroxyphenyl)-7-((4-fluorobenzyl)oxy)-3,5-dihydroxy-4H-chromen-4-one] | 5.1 ± 0.5 µM | 6.2 | 31.9 ± 3.4 µM | 254 to 255 °C | –
O=C(Oc1c(-c2ccc(O)c(O)c2)oc2cc(O)cc(O)c2c1=O)c1ccccc1 [Compound 4a, 2-(3,4-Dihydroxyphenyl)-5,7-dihydroxy-4-oxo-4H-chromen-3-yl benzoate] | 14.3 ± 5.1 µM | >3.5 | > 50 µM | 173 to 174 °C | –
O=c1c(O)c(-c2ccc(O)c(O)c2)oc2cc(OCc3ccc([N+](=O)[O-])cc3)cc(O)c12 [Compound 3s, 2-(3,4-Dihydroxyphenyl)-3,5-dihydroxy-7-((4-nitrobenzyl)oxy)-4H-chromen-4-one] | 4.3 ± 0.2 µM | 4.5 | 19.6 ± 0.2 µM | 253.5 to 254.5 °C | –
O=c1c(O)c(-c2ccc(O)c(O)c2)oc2cc(OCc3ccccc3Cl)cc(O)c12 [Compound 3c, 7-((2-Chlorobenzyl)oxy)-2-(3,4-dihydroxyphenyl)-3,5-dihydroxy-4H-chromen-4-one] | 4.8 ± 0.1 µM | 7.7 | 36.7 ± 0.7 µM | 253 to 254 °C | –
O=C(Oc1c(-c2ccc(O)c(O)c2)oc2cc(O)cc(O)c2c1=O)c1cccc(Cl)c1 [Compound 4j, 2-(3,4-Dihydroxyphenyl)-5,7-dihydroxy-4-oxo-4H-chromen-3-yl 3-chlorobenzoate] | 23 ± 3.2 µM | – | > 50 µM | > 300 °C | –
COc1c(-c2ccc(O)c(O)c2)oc2cc(O)cc(O)c2c1=O [Compound 12a, 2-(3,4-Dihydroxyphenyl)-5,7-dihydroxy-3-methoxy-4H-chromen-4-one] | 11.2 ± 0.1 µM | >4.5 | > 50 µM | – | –
O=C(Oc1c(-c2ccc(O)c(O)c2)oc2cc(O)cc(O)c2c1=O)c1ccccc1F [Compound 4b, 2-(3,4-Dihydroxyphenyl)-5,7-dihydroxy-4-oxo-4H-chromen-3-yl 2-fluorobenzoate] | 12.9 ± 3.2 µM | >3.9 | > 50 µM | 186 to 187 °C | –
Nc1ccccc1C(=O)Oc1c(-c2ccc(O)c(O)c2)oc2cc(O)cc(O)c2c1=O [Compound 4c, 2-(3,4-Dihydroxyphenyl)-5,7-dihydroxy-4-oxo-4H-chromen-3-yl 2-aminobenzoate] | 12.8 ± 2.8 µM | >3.9 | – | 198 to 199 °C | > 50 µM
Nc1cccc(C(=O)Oc2c(-c3ccc(O)c(O)c3)oc3cc(O)cc(O)c3c2=O)c1 [Compound 4g, 2-(3,4-Dihydroxyphenyl)-5,7-dihydroxy-4-oxo-4H-chromen-3-yl 3-aminobenzoate] | 21.1 ± 1.3 µM | >2.4 | > 50 µM | 216 to 217 °C | –
Nc1ccc(C(=O)Oc2c(-c3ccc(O)c(O)c3)oc3cc(O)cc(O)c3c2=O)cc1 [Compound 4l, 2-(3,4-Dihydroxyphenyl)-5,7-dihydroxy-4-oxo-4H-chromen-3-yl 4-aminobenzoate] | 23.8 ± 0.8 µM | >2.1 | > 50 µM | 233 to 234 °C | –
O=c1c(O)c(-c2ccc(O)c(O)c2)oc2cc(OCc3cccc(Br)c3)cc(O)c12 [Compound 3j, 7-((3-Bromobenzyl)oxy)-2-(3,4-dihydroxyphenyl)-3,5-dihydroxy-4H-chromen-4-one] | 4.1 ± 0.3 µM | 5.4 | 22.3 ± 1.2 µM | 234 to 236 °C | –
O=C(Oc1c(-c2ccc(O)c(O)c2)oc2cc(O)cc(O)c2c1=O)c1ccc(F)cc1 [Compound 4k, 2-(3,4-Dihydroxyphenyl)-5,7-dihydroxy-4-oxo-4H-chromen-3-yl 4-fluorobenzoate] | 9.7 ± 3.1 µM | 3.6 | 35 ± 2.4 µM | 203 to 205 °C | –
N#Cc1ccccc1COc1cc(O)c2c(=O)c(O)c(-c3ccc(O)c(O)c3)oc2c1 [Compound 3f, 2-(((2-(3,4-Dihydroxyphenyl)-3,5-dihydroxy-4-oxo-4H-chromen-7-yl)oxy)methyl)benzonitrile] | 7.5 ± 0.5 µM | 1.7 | 12.6 ± 0.1 µM | 248 to 249 °C | –
N#Cc1cccc(C(=O)Oc2c(-c3ccc(O)c(O)c3)oc3cc(O)cc(O)c3c2=O)c1 [Compound 4i, 2-(3,4-Dihydroxyphenyl)-5,7-dihydroxy-4-oxo-4H-chromen-3-yl 3-cyanobenzoate] | 13.1 ± 1 µM | >3.8 | > 50 µM | 142 to 143 °C | –
N#Cc1cccc(COc2cc(O)c3c(=O)c(O)c(-c4ccc(O)c(O)c4)oc3c2)c1 [Compound 3l, 3-(((2-(3,4-Dihydroxyphenyl)-3,5-dihydroxy-4-oxo-4H-chromen-7-yl)oxy)methyl)benzonitrile] | 5.4 ± 0.5 µM | 2.0 | – | – | 10.6 ± 0.5 µM
N#Cc1ccccc1C(=O)Oc1c(-c2ccc(O)c(O)c2)oc2cc(O)cc(O)c2c1=O [Compound 4e, 2-(3,4-Dihydroxyphenyl)-5,7-dihydroxy-4-oxo-4H-chromen-3-yl 2-cyanobenzoate] | 20.2 ± 8.6 µM | >2.5 | > 50 µM | 196 to 197 °C | –
Cc1ccccc1COc1cc(O)c2c(=O)c(O)c(-c3ccc(O)c(O)c3)oc2c1 [Compound 3e, 2-(3,4-Dihydroxyphenyl)-3,5-dihydroxy-7-((2-methylbenzyl)oxy)-4H-chromen-4-one] | 4.9 ± 0.6 µM | 4.4 | 21.7 ± 1.4 µM | 241 to 242 °C | –
O=c1c(O)c(-c2ccc(O)c(O)c2)oc2cc(OCc3ccccc3[N+](=O)[O-])cc(O)c12 [Compound 3g, 2-(3,4-Dihydroxyphenyl)-3,5-dihydroxy-7-((2-nitrobenzyl)oxy)-4H-chromen-4-one] | 7 ± 1.1 µM | 2.1 | 14.6 ± 0.5 µM | 260 to 261 °C | –
N#CCCCOc1c(-c2ccc(O)c(O)c2)oc2cc(O)cc(O)c2c1=O [Compound 12d, 4-(2-(3,4-Dihydroxyphenyl)-5,7-dihydroxy-4-oxo-4H-chromen-3-yloxy)butanenitrile] | > 50 µM | – | > 50 µM | 169 to 171 °C | –
O=c1c(OCCO)c(-c2ccc(O)c(O)c2)oc2cc(O)cc(O)c12 [Compound 12c, 2-(3,4-Dihydroxyphenyl)-5,7-dihydroxy-3-(2-hydroxyethoxy)-4H-chromen-4-one] | 26.3 ± 3.1 µM | >1.9 | > 50 µM | – | –
